Assay: xn = mol fraction of the nth substance listed
Details: 101 kPa

SMILES | electrical conductivity (293.15 K, x2 = 0) | electrical conductivity (293.15 K, x2 = 0.75) | viscosity (293.15 K, x2 = 0.75) | electrical conductivity (313.15 K, x2 = 0) | viscosity (313.15 K, x2 = 0) | electrical conductivity (313.15 K, x2 = 0.5) | viscosity (313.15 K, x2 = 0.5) | electrical conductivity (333.15 K, x2 = 0) | viscosity (333.15 K, x2 = 0) | electrical conductivity (333.15 K, x2 = 0.5) | viscosity (333.15 K, x2 = 0.5) | electrical conductivity (353.15 K, x2 = 0.75) | viscosity (353.15 K, x2 = 0.75) | electrical conductivity (293.15 K, x1 = 1) | electrical conductivity (313.15 K, x1 = 1) | viscosity (313.15 K, x1 = 1) | electrical conductivity (333.15 K, x1 = 1) | viscosity (333.15 K, x1 = 1) | electrical conductivity (353.15 K, x1 = 1) | viscosity (353.15 K, x1 = 1) | also measured
CCC[N+]1(C)CCCC1.O=S(=O)([N-]S(=O)(=O)C(F)(F)F)C(F)(F)F + CCCCCCCCCCCCCC[P+](CCCCCC)(CCCCCC)CCCCCC.O=S(=O)([N-]S(=O)(=O)C(F)(F)F)C(F)(F)F | 0.32 S/m | 0.0113 S/m | 368 mPa·s | 0.678 S/m | 34.5 mPa·s | 0.0565 S/m | 117 mPa·s | 1.18 S/m | 18.8 mPa·s | 0.12 S/m | 51.8 mPa·s | 0.146 S/m | 29.2 mPa·s | – | – | – | – | – | – | – | electrical conductivity (293.15 K, x2 = 0.5): 0.0216 S/m; viscosity (293.15 K, x2 = 0.5): 322 mPa·s; electrical conductivity (333.15 K, x2 = 0.75): 0.0688 S/m; viscosity (333.15 K, x2 = 0.75): 61.9 mPa·s; electrical conductivity (353.15 K, x2 = 0): 1.76 S/m; viscosity (353.15 K, x2 = 0): 11.6 mPa·s; electrical conductivity (353.15 K, x2 = 0.5): 0.223 S/m; viscosity (353.15 K, x2 = 0.5): 26.7 mPa·s
CCC[N+]1(C)CCCC1.O=S(=O)([N-]S(=O)(=O)C(F)(F)F)C(F)(F)F + CCCCCC[N+]1(C)CCCC1.O=S(=O)([N-]S(=O)(=O)C(F)(F)F)C(F)(F)F | 0.32 S/m | – | – | 0.678 S/m | 34.4 mPa·s | – | – | 1.18 S/m | 18.8 mPa·s | – | – | – | – | – | – | – | – | – | – | – | –
CCC[N+]1(C)CCCC1.O=S(=O)([N-]S(=O)(=O)C(F)(F)F)C(F)(F)F + CCCC[N+]1(C)CCCC1.O=S(=O)([N-]S(=O)(=O)C(F)(F)F)C(F)(F)F | 0.32 S/m | 0.261 S/m | 92 mPa·s | 0.678 S/m | 34.4 mPa·s | 0.61 S/m | 37.9 mPa·s | – | – | 1.03 S/m | 20 mPa·s | 1.57 S/m | 12.5 mPa·s | – | – | – | – | – | – | – | electrical conductivity (293.15 K, x2 = 0.5): 0.298 S/m; viscosity (293.15 K, x2 = 0.5): 87 mPa·s; electrical conductivity (313.15 K, x2 = 0.25): 0.509 S/m; viscosity (313.15 K, x2 = 0.25): 35.9 mPa·s; electrical conductivity (313.15 K, x2 = 0.75): 0.569 S/m; viscosity (313.15 K, x2 = 0.75): 39.5 mPa·s; electrical conductivity (333.15 K, x2 = 0.25): 0.893 S/m; viscosity (333.15 K, x2 = 0.25): 19.2 mPa·s; electrical conductivity (353.15 K, x2 = 0): 1.76 S/m; viscosity (353.15 K, x2 = 0): 11.6 mPa·s; electrical conductivity (353.15 K, x2 = 0.25): 1.39 S/m; viscosity (353.15 K, x2 = 0.25): 11.8 mPa·s
CCC[N+]1(C)CCCC1.O=S(=O)([N-]S(=O)(=O)C(F)(F)F)C(F)(F)F + CCC[N+]1(C)CCCC1.N#C[N-]C#N | 0.32 S/m | – | – | – | – | – | – | 1.18 S/m | 18.8 mPa·s | – | – | – | – | – | – | – | – | – | – | – | –
CCCCCCCCCCCCCC[P+](CCCCCC)(CCCCCC)CCCCCC.O=S(=O)([N-]S(=O)(=O)C(F)(F)F)C(F)(F)F + CCC[N+]1(C)CCCC1.O=S(=O)([N-]S(=O)(=O)C(F)(F)F)C(F)(F)F | – | – | – | – | – | – | – | – | – | – | – | – | – | 0.0072 S/m | 0.0216 S/m | 150 mPa·s | 0.0473 S/m | 63 mPa·s | 0.0913 S/m | 31.1 mPa·s | –
CCCCCC[N+]1(C)CCCC1.O=S(=O)([N-]S(=O)(=O)C(F)(F)F)C(F)(F)F + CCC[N+]1(C)CCCC1.O=S(=O)([N-]S(=O)(=O)C(F)(F)F)C(F)(F)F | – | – | – | – | – | – | – | – | – | – | – | – | – | 0.118 S/m | 0.272 S/m | 52.7 mPa·s | 0.525 S/m | 25.9 mPa·s | 0.86 S/m | 14.9 mPa·s | electrical conductivity (293.15 K, x1 = 0.25): 0.268 S/m; viscosity (293.15 K, x1 = 0.25): 89 mPa·s; electrical conductivity (293.15 K, x1 = 0.5): 0.185 S/m; viscosity (293.15 K, x1 = 0.5): 102 mPa·s; electrical conductivity (293.15 K, x1 = 0.75): 0.111 S/m; viscosity (293.15 K, x1 = 0.75): 116 mPa·s; electrical conductivity (313.15 K, x1 = 0.5): 0.417 S/m; viscosity (313.15 K, x1 = 0.5): 42.9 mPa·s; electrical conductivity (313.15 K, x1 = 0.75): 0.251 S/m; viscosity (313.15 K, x1 = 0.75): 47.3 mPa·s; electrical conductivity (333.15 K, x1 = 0.25): 1.02 S/m; viscosity (333.15 K, x1 = 0.25): 20.6 mPa·s; electrical conductivity (333.15 K, x1 = 0.5): 0.766 S/m; viscosity (333.15 K, x1 = 0.5): 22.2 mPa·s; electrical conductivity (333.15 K, x1 = 0.75): 0.463 S/m; viscosity (333.15 K, x1 = 0.75): 23.8 mPa·s; electrical conductivity (353.15 K, x1 = 0.25): 1.54 S/m; viscosity (353.15 K, x1 = 0.25): 12.6 mPa·s; electrical conductivity (353.15 K, x1 = 0.75): 0.724 S/m; viscosity (353.15 K, x1 = 0.75): 13.9 mPa·s
CCCC[N+]1(C)CCCC1.O=S(=O)([N-]S(=O)(=O)C(F)(F)F)C(F)(F)F + CCC[N+]1(C)CCCC1.O=S(=O)([N-]S(=O)(=O)C(F)(F)F)C(F)(F)F | – | – | – | – | – | – | – | – | – | – | – | – | – | 0.222 S/m | 0.471 S/m | 42 mPa·s | 0.827 S/m | 21.7 mPa·s | 1.23 S/m | 12.9 mPa·s | –
CCC[N+]1(C)CCCC1.N#C[N-]C#N + CCC[N+]1(C)CCCC1.O=S(=O)([N-]S(=O)(=O)C(F)(F)F)C(F)(F)F | – | – | – | – | – | – | – | – | – | – | – | – | – | 1.57 S/m | 2.67 S/m | 18.6 mPa·s | 4.44 S/m | 11.7 mPa·s | – | 7.95 mPa·s | electrical conductivity (293.15 K, x1 = 0.25): 0.44 S/m; viscosity (293.15 K, x1 = 0.25): 63.1 mPa·s; electrical conductivity (293.15 K, x1 = 0.5): 0.733 S/m; viscosity (293.15 K, x1 = 0.5): 51 mPa·s; electrical conductivity (293.15 K, x1 = 0.75): 0.982 S/m; viscosity (293.15 K, x1 = 0.75): 44.9 mPa·s; electrical conductivity (313.15 K, x1 = 0.25): 0.842 S/m; viscosity (313.15 K, x1 = 0.25): 29.7 mPa·s; electrical conductivity (313.15 K, x1 = 0.5): 1.34 S/m; viscosity (313.15 K, x1 = 0.5): 25.3 mPa·s; electrical conductivity (313.15 K, x1 = 0.75): 1.75 S/m; viscosity (313.15 K, x1 = 0.75): 21.6 mPa·s; electrical conductivity (333.15 K, x1 = 0.5): 2.16 S/m; viscosity (333.15 K, x1 = 0.5): 14.8 mPa·s; viscosity (353.15 K, x1 = 0.25): 10.4 mPa·s; viscosity (353.15 K, x1 = 0.5): 9.58 mPa·s; viscosity (353.15 K, x1 = 0.75): 8.66 mPa·s
CC[n+]1ccn(C)c1.O=S(=O)([N-]S(=O)(=O)C(F)(F)F)C(F)(F)F + CCC[N+]1(C)CCCC1.O=S(=O)([N-]S(=O)(=O)C(F)(F)F)C(F)(F)F | – | – | – | – | – | – | – | – | – | – | – | – | – | 0.752 S/m | 1.35 S/m | 19.9 mPa·s | 2.1 S/m | 12 mPa·s | 3.05 S/m | 7.97 mPa·s | –
CCC[N+]1(C)CCCC1.O=S(=O)([N-]S(=O)(=O)C(F)(F)F)C(F)(F)F + CC[n+]1ccn(C)c1.O=S(=O)([N-]S(=O)(=O)C(F)(F)F)C(F)(F)F | 0.32 S/m | 0.633 S/m | 45 mPa·s | 0.678 S/m | 34.4 mPa·s | 0.985 S/m | 25.8 mPa·s | – | – | 1.62 S/m | 14.9 mPa·s | 2.66 S/m | 8.77 mPa·s | – | – | – | – | – | – | – | electrical conductivity (293.15 K, x2 = 0.25): 0.408 S/m; viscosity (293.15 K, x2 = 0.25): 63.6 mPa·s; electrical conductivity (313.15 K, x2 = 0.25): 0.801 S/m; viscosity (313.15 K, x2 = 0.25): 29.4 mPa·s; electrical conductivity (313.15 K, x2 = 0.75): 1.16 S/m; viscosity (313.15 K, x2 = 0.75): 22.6 mPa·s; electrical conductivity (333.15 K, x2 = 0.25): 1.34 S/m; viscosity (333.15 K, x2 = 0.25): 16.6 mPa·s; electrical conductivity (333.15 K, x2 = 0.75): 1.85 S/m; viscosity (333.15 K, x2 = 0.75): 13.3 mPa·s; electrical conductivity (353.15 K, x2 = 0.25): 2 S/m; viscosity (353.15 K, x2 = 0.25): 10.5 mPa·s; electrical conductivity (353.15 K, x2 = 0.5): 2.37 S/m; viscosity (353.15 K, x2 = 0.5): 9.57 mPa·s

Source: a compilation of properties of binary mixtures (doi:10.1021/jp3012602)
